This note sets out measurements from patent publication US8835428B2, “Diacylglycerol acyltransferase inhibitors” (Piramal Enterprises Limited, priority 2008, dated 2014).

The target of one assay is T1, hDGAT1 (Homo sapiens, UniProt O75907).
T1 construct: host or cells: Sf9 insect cells (baculovirus); microsomal preparation
T1 sequence (O75907 1-488): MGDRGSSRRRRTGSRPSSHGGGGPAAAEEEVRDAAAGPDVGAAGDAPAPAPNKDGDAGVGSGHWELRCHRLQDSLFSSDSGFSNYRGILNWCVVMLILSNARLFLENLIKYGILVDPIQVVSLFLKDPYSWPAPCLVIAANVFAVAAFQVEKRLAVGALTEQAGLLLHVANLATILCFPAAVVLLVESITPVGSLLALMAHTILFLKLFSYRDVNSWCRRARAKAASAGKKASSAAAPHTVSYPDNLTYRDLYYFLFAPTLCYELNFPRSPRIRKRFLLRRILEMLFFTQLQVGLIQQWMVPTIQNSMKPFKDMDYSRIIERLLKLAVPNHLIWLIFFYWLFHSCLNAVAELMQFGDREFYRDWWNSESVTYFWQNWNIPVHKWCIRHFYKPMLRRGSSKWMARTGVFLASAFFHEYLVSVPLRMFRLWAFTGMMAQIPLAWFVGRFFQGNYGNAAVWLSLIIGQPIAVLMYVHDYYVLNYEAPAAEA
Nature of the assay: In-vitro DGAT1 assay (hDGAT1 microsomes from Sf9 cells, 14C oleoyl CoA, triglyceride formation). The assay is classed as biochemical. Conditions: At 1 μM. Put shortly:
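Human DGAT1 in baculovirus-infected Sf9 microsomes (2.5–10 μg), [14C]oleoyl-CoA with 409.5, 1228.5 or 1638 μM 1,2-dioleoyl-sn-glycerol, Tris-HCl pH 7.4 buffer with BSA. Compounds screened at 10, 5 and 1 μM in duplicate. Reaction 10 min at 37 °C; heptane-extracted [14C]triglyceride counted by scintillation.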
Usually inhibition stands for the change of the read-out against control, counted positive when it falls. Read a high inhibition as strong suppression. `COC(=O)[C@H](C(C)C)N(C)C(=O)c1cc(-c2ccc(NC(=O)NC3CCCCC3)cc2)no1` [Example 311, (S)-methyl 2-(3-(4-(3-cyclohexylureido)phenyl)-N-methylisoxazole-5-carboxamido)-3-methylbutanoate]: the inhibition at 1 µM was in the range of 50 to 75%.
In turn, `CC(C)[C@H](NC(=O)c1cc(-c2ccc(NC(=O)Nc3cccc(Cl)c3F)cc2)no1)C(=O)O` [Example 183, (S)-2-(3-(4-(3-(3-chloro-2-fluorophenyl)ureido)phenyl)isoxazole-5-carboxamido)-3-methylbutanoic acid] came in with an inhibition at 1 µM of 75 to 100%.
As to “2-(3-(4-(Benzyloxy)phenyl)isoxazole-5-carboxamido)-3-methylbutanoic acid [Example 324]”, the “% inhibition of hDGAT1” value is listed as “+ (>0% Inhibition ≦50)”.
Compound `CC(C)[C@H](NC(=O)c1cc(-c2ccc(NC(=O)Nc3ccc4c(c3)CCC4)cc2)no1)C(=O)O` [Example 181, (S)-2-(3-(4-(3-(2,3-dihydro-1H-inden-5-yl)ureido)phenyl)isoxazole-5-carboxamido)-3-methylbutanoic acid] displayed an inhibition at 1 µM of 75 to 100%.
On the same count and under the same terms, as for `Cc1ccc(NC(=O)Nc2ccc(-c3cc(C(=O)N[C@H](C(=O)O)C(C)C)on3)cc2)cc1C` [Example 173, (S)-2-(3-(4-(3-(3,4-dimethylphenyl)ureido)phenyl)isoxazole-5-carboxamido)-3-methylbutanoic acid], the figure is 75 to 100%; as for `CC(C)c1ccc(NC(=O)Nc2ccc(-c3cc(C(=O)N[C@H](C(=O)O)C(C)C)on3)cc2)cc1` [Example 228, (S)-2-(3-(4-(3-(4-Isopropylphenyl)ureido)phenyl)isoxazole-5-carboxamido)-3-methylbutanoic acid], 75 to 100%.
The same measure, in the same setting: with `Cc1cccc(Cl)c1NC(=O)Nc1ccc(-c2cc(C(=O)N[C@H](C(=O)O)C(C)C)on2)cc1` [Example 175, (S)-2-(3-(4-(3-(2-Chloro-6-methylphenyl)ureido)phenyl)isoxazole-5-carboxamido)-3-methylbutanoic acid] the figure was 0 to 50%; with `CC(C)C(NC(=O)c1cc(-c2ccc(OCc3cccc(C(F)(F)F)c3)cc2)no1)C(=O)O` (centres unmarked) [Example 326, 3-Methyl-2-(3-(4-(3-(trifluoromethyl)benzyloxy)phenyl)isoxazole-5-carboxamido)butanoic acid], 0 to 50%; with `COC(=O)[C@H](C(C)C)N(C)C(=O)c1cc(-c2ccc(NC(=O)Nc3cccc(C(F)(F)F)c3)cc2)no1` [Example 309, (S)-methyl 3-methyl-2-(N-methyl-3-(4-(3-(3-(trifluoromethyl)phenyl)ureido)phenyl)isoxazole-5-carboxamido)butanoate], 50 to 75%.

The same assay, now with this note: At 5 μM.
`COC(=O)[C@H](Cc1ccc(O)cc1)NC(=O)c1cc(-c2ccc(NC(=O)Nc3ccc(C)cc3)cc2)no1` [Example 272, (S)-Methyl 3-(4-hydroxyphenyl)-2-(3-(4-(3-p-tolylureido)phenyl)isoxazole-5-carboxamido)propanoate] returned an inhibition at 5 µM of 0 to 50%.
On to `COC(=O)[C@H](CO)NC(=O)c1cc(-c2ccc(NC(=O)Nc3ccccc3F)cc2)no1` [Example 298, (S)-Methyl 2-(3-(4-(3-(2-fluorophenyl)ureido)phenyl)isoxazole-5-carboxamido)-3-hydroxypropanoate], for which the inhibition at 5 µM was in the range of 50 to 75%.
`CC(C)C(NC(=O)c1cc(-c2ccc(NC(=O)Nc3ccccn3)cc2)no1)C(=O)O` (centres unmarked) [Example 280, 3-methyl-2-(3-(4-(3-pyridin-2-ylureido)phenyl)isoxazole-5-carboxamido)butanoic acid]: the inhibition at 5 µM lay in the range of 50 to 75%.
The compound `COC(=O)[C@@H](NC(=O)c1cc(-c2ccc(NC(=S)Nc3ccccc3F)cc2)no1)C(C)C` [Example 269, (S)-methyl 2-(3-(4-(3-(2-fluorophenyl)thioureido)phenyl)isoxazole-5-carboxamido)-3-methylbutanoate] came in with an inhibition at 5 µM of 0 to 50%.
On to `COC(=O)[C@H](Cc1ccc(O)cc1)NC(=O)c1cc(-c2ccc(NC(=O)Nc3ccccc3F)cc2)no1` [Example 274, (S)-Methyl 2-(3-(4-(3-(2-fluorophenyl)ureido)phenyl)isoxazole-5-carboxamido)-3-(4-hydroxyphenyl)propanoate], for which the inhibition at 5 µM was 0 to 50%.
Still for that read-out and setting: as for `COC(=O)CCCNC(=O)c1cc(-c2ccc(NC(=O)Nc3ccccc3F)cc2)no1` [Example 253, Methyl 4-(3-(4-(3-(2-fluorophenyl)ureido)phenyl)isoxazole-5-carboxamido)butanoate], the figure is 0 to 50%; as for `COC(=O)[C@@H](NC(=O)c1cc(-c2ccc(NC(=O)Nc3ccc(F)cc3)cc2F)no1)C(C)C` [Example 145, (S)-Methyl 2-(3-(2-fluoro-4-(3-(4-fluorophenyl)ureido)phenyl)isoxazole-5-carboxamido)-3-methylbutanoate], 50 to 75%.

The assay is the same for the next values; noted with them: At 10 μM.
With `COC(=O)[C@H](NC(=S)c1cc(-c2ccc(Nc3nc4ccc(F)cc4s3)cc2)no1)C(C)C` [Example 39, (R)-2-({3-[4-(6-Fluoro-benzothiazol-2-ylamino)-phenyl]-isoxazole-5-carbothioyl}-amino)-3-methyl-butyric acid methyl ester], the inhibition at 10 µM lay in the range of 0 to 50%.
The compound `COc1ccc(NC(=O)Nc2ccc(-c3cc(C(=O)NC(C(=O)O)C(C)C)on3)cc2)cc1` (centres unmarked) [Example 128, 2-(3-(4-(3-(4-Methoxyphenyl)ureido)phenyl)isoxazole-5-carboxamido)-3-methylbutanoic acid] showed an inhibition at 10 µM of 75 to 100%.
In the case of `COC[C@H](NC(=S)c1c(-c2ccc(Nc3nc4ccc(F)cc4s3)cc2)noc1-c1ccccc1)C(=O)OC` [Example 74, (S)-2-({3-[4-(6-Fluoro-benzothiazol-2-ylamino)-phenyl]-5-phenyl-isoxazole-4-carbothioyl}-amino)-3-methoxy-propionic acid methyl ester], the inhibition at 10 µM was in the range of 0 to 50%.
Same read-out and setting: with `COC(=O)[C@@H](NC(=NO)c1cc(-c2ccc(Nc3nc4ccc(F)cc4s3)cc2)no1)c1ccccc1` [Example 56, (S)-({3-[4-(6-Fluoro-benzothiazol-2-ylamino)-phenyl]-N-hydroxy-isoxazole-5-carboximidoyl}-amino)-phenyl-acetic acid methyl ester] the figure was 0 to 50%; with `COC(=O)[C@H](CC(C)C)NC(=S)c1cc(-c2ccc(Nc3nc4ccc(F)cc4s3)cc2)no1` [Example 48, (S)-2-({3-[4-(6-Fluoro-benzothiazol-2-ylamino)-phenyl]-isoxazole-5-carbothioyl}-amino)-4-methyl-pentanoic acid methyl ester], 0 to 50%.
The same measure, in the same setting: with `Cc1cc(-c2cc(C(=O)NC(CC(C)C)C(=O)O)on2)ccc1NC(=O)Nc1c(F)cccc1F` (centres unmarked) [Example 100, 2-(3-(4-(3-(2,6-Difluorophenyl)ureido)-3-methylphenyl)isoxazole-5-carboxamido)-4-methylpentanoic acid] the figure was 0 to 50%.
Compound `COC(=O)C(NC(=O)c1cc(-c2ccc(NC(=O)Nc3ccc(OC)cc3)cc2)no1)C(C)C` (centres unmarked) [Example 127, Methyl 2-(3-(4-(3-(4-methoxyphenyl)ureido)phenyl)isoxazole-5-carboxamido)-3-methylbutanoate] had an inhibition at 10 µM of 0 to 50%.
`COC[C@H](NC(=S)c1cc(-c2cccc(Nc3nc4ccc(F)cc4s3)c2)no1)C(=O)OC` [Example 30, (S)-2-({3-[3-(6-Fluoro-benzothiazol-2-ylamino)-phenyl]-isoxazole-5-carbothioyl}-amino)-3-methoxy-propionic acid methyl ester] registered an inhibition at 10 µM of 0 to 50%.
Take `COC(=O)C(NC(=O)c1cc(-c2ccc(NC(=O)Nc3c(F)cccc3F)cc2)no1)C(C)C` (centres unmarked) [Example 123, Methyl 2-(3-(4-(3-(2,6-difluorophenyl)ureido)phenyl)isoxazole-5-carboxamido)-3-methylbutanoate]: the inhibition at 10 µM is 50 to 75%.
Regarding `O=C(N[C@H](C(=O)O)c1ccccc1)c1cc(-c2ccc(Nc3nc4ccc(F)cc4s3)cc2)no1` [Example 53, (S)-({3-[4-(6-Fluoro-benzothiazol-2-ylamino)-phenyl]-isoxazole-5-carbonyl}-amino)-phenyl-acetic acid], the inhibition at 10 µM is 75 to 100%.
Consider `Cc1cc(-c2cc(C(=O)NC(C)C(=O)O)on2)ccc1NC(=O)Nc1c(F)cccc1F` (centres unmarked) [Example 102, 2-(3-(4-(3-(2,6-Difluorophenyl)ureido)-3-methylphenyl)isoxazole-5-carboxamido)propanoic acid], for which the inhibition at 10 µM fell in the range of 0 to 50%.
`COC(=O)[C@H](CC(C)C)NC(=O)c1cc(-c2ccc(Nc3nc4ccc(F)cc4s3)cc2)no1` [Example 46, (S)-2-({3-[4-(6-Fluoro-benzothiazol-2-ylamino)-phenyl]-isoxazole-5-carbonyl}-amino)-4-methyl-pentanoic acid methyl ester] had an inhibition at 10 µM of 0 to 50%.
In turn, `CC(C)[C@@H](NC(=S)c1cc(-c2ccc(Nc3nc4ccc(F)cc4s3)cc2)no1)C(=O)O` [Example 43, (R)-2-({3-[4-(6-Fluoro-benzothiazol-2-ylamino)-phenyl]-isoxazole-5-carbothioyl}-amino)-3-methyl-butyric acid] came in with an inhibition at 10 µM of 50 to 75%.
